Bridge positions count the residues as written; N and C are the ends. Square brackets hold non-standard residues; d marks the D form. Peptide text beside a SMILES is read from it. * marks the point of attachment. Phe(4-CH2CH2COOH) = N[C@@H](Cc1ccc(CCC(=O)O)cc1)C(=O)O; Phe(4-COOH) = N[C@@H](Cc1ccc(C(=O)O)cc1)C(=O)O; Bip = N[C@@H](Cc1ccc(-c2ccccc2)cc1)C(=O)O; Tyr(3-F) = N[C@@H](Cc1ccc(O)c(F)c1)C(=O)O; Phe(4-NH2) = Nc1ccc(C[C@H](N)C(=O)O)cc1; Phe(3-Me) = Cc1cccc(C[C@H](N)C(=O)O)c1; Val(3-OH) = CC(C)(O)[C@H](N)C(=O)O; mTyr = N[C@@H](Cc1cccc(O)c1)C(=O)O; dAla(cPr) = N[C@H](CC1CC1)C(=O)O; 4Pal = N[C@@H](Cc1ccncc1)C(=O)O; Cha = N[C@@H](CC1CCCCC1)C(=O)O; Cit = NC(=O)NCCC[C@H](N)C(=O)O; dCba = N[C@H](CC1CCC1)C(=O)O; Carboxymethyl = O=C(O)C*; Orn = NCCC[C@H](N)C(=O)O; Aun = NCCCCCCCCCCC(=O)O; Dab = NCC[C@H](N)C(=O)O; Dap = NC[C@H](N)C(=O)O; AEEA = NCCOCCOCC(=O)O

T1 sequence (Q15116 25-288): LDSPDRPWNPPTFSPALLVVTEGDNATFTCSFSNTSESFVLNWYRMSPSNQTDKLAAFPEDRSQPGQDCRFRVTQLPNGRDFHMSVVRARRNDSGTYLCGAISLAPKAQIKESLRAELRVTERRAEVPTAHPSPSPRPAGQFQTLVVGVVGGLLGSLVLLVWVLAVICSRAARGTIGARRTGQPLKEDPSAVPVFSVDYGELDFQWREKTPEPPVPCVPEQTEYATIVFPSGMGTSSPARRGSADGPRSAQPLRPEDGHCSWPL

The assay concerns the target T1, PD-1/PD-L1 interaction (PE-labeled human PD-L1-Ig binding to Jurkat cell line over-expressing human PD-1) (Homo sapiens, UniProt Q15116).
T1 construct: expressed in transfected cells; host or cells: Jurkat
Briefly: Jurkat-PD-1 Cell Binding High-Content Screening Assay (CBA). The conditions noted are these: Jurkat cell line over-expressing human PD-1; PE-labeled PD-L1-Ig 20 nM final; read-out: Jurkat hPD1-PDL1 IC50. Format: cell-based. The method in brief: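 First, compound is added to PD-1-expressing Jurkat cells in serum-containing DMEM and left 2 h at 37° C. Next, PE-conjugated PD-L1-Ig is introduced at 20 nM final concentration for 1 hour. Finally, cells are fixed in 4% paraformaldehyde with Hoechst 33342, washed and imaged.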
Regarding `Cc1cccc(C[C@@H]2NC(=O)[C@H](CC(=O)O)NC(=O)[C@H](Cc3ccc(OCC(=O)O)cc3)NC(=O)[C@H](CN)NC(=O)CSC[C@@H](C(=O)N[C@@H](CCN)C(=O)NCCOCCOCC(=O)NCCCCCCCCCCC(=O)O)NC(=O)[C@@H](CO)NC(=O)[C@H](C(C)C)NC(=O)[C@H](CC3CCCCC3)NC(=O)[C@H](CCN)NC(=O)[C@@H](CC(C)C)NC(=O)[C@H](CCCN)NC(=O)[C@H](C(C)C)NC(=O)[C@H](Cc3ccc(-c4ccccc4)cc3)NC(=O)[C@H](Cc3ccc(O)cc3)NC2=O)c1` [Compound 2017] ({CH2CO}-[Dap]Y(Carboxymethyl)D[Phe(3-Me)]Y[Bip]V[Orn][dL][Dab][Cha]V[dS]C[Dab][AEEA][Aun]-OH; thioether N-14), the IC50 came out at 19.3 nM.

On to `CC(C)C[C@@H]1NC(=O)[C@H](Cc2c[nH]c3ccccc23)NC(=O)[C@H](CC(=O)O)NC(=O)[C@H](Cc2ccc(OCC(=O)O)cc2)NC(=O)[C@H](CN)NC(=O)CSC[C@@H](C(=O)N[C@@H](CCN)C(=O)NCCCCCCCCCCC(=O)O)NC(=O)[C@@H](CO)NC(=O)[C@H](C(C)C)NC(=O)[C@H](CC2CCCCC2)NC(=O)[C@H](CCN)NC(=O)[C@@H](CC(C)C)NC(=O)[C@H](CCCN)NC(=O)[C@H](C(C)C)NC(=O)[C@H](Cc2ccc(-c3ccccc3)cc2)NC1=O` [Compound 2018] ({CH2CO}-[Dap]Y(Carboxymethyl)DWL[Bip]V[Orn][dL][Dab][Cha]V[dS]C[Dab][Aun]-OH; thioether N-14), for which the IC50 was 40.4 nM. Next, `CC(C)C[C@@H]1NC(=O)[C@H](Cc2c[nH]c3ccccc23)NC(=O)[C@H](CC(=O)O)NC(=O)[C@H](Cc2ccc(C(=O)O)cc2)NC(=O)[C@H](Cc2ccc(CCC(=O)O)cc2)NC(=O)CSC[C@@H](C(=O)N[C@@H](CCN)C(=O)NCCCCCCCCCCC(=O)O)NC(=O)[C@@H](CO)NC(=O)[C@H](C(C)C)NC(=O)[C@H](CC2CCCCC2)NC(=O)[C@H](CCN)NC(=O)[C@@H](CC(C)C)NC(=O)[C@H](CCCN)NC(=O)[C@H](C(C)C)NC(=O)[C@H](Cc2ccc(-c3ccccc3)cc2)NC1=O` [Compound 2019] ({CH2CO}-[Phe(4-CH2CH2COOH)][Phe(4-COOH)]DWL[Bip]V[Orn][dL][Dab][Cha]V[dS]C[Dab][Aun]-OH; thioether N-14): 49.9 nM. Next, `Cc1cccc(C[C@@H]2NC(=O)[C@H](CC(=O)O)NC(=O)[C@H](Cc3ccc(OCC(=O)O)cc3)NC(=O)[C@H](CN)NC(=O)CSC[C@@H](C(=O)N[C@@H](CC(=O)O)C(=O)NCCOCCOCC(=O)NCCCCCCCCCCC(=O)O)NC(=O)[C@H](CCCN)NC(=O)[C@H](C(C)C)NC(=O)[C@H](CC3CCCCC3)NC(=O)[C@H](CCN)NC(=O)[C@@H](CC(C)C)NC(=O)[C@H](CCCN)NC(=O)[C@H](CCCNC(N)=O)NC(=O)[C@H](Cc3ccc(-c4ccccc4)cc3)NC(=O)[C@H](C(C)C)NC2=O)c1` [Compound 2020] ({CH2CO}-[Dap]Y(Carboxymethyl)D[Phe(3-Me)]V[Bip][Cit][Orn][dL][Dab][Cha]V[Orn]CD[AEEA][Aun]-OH; thioether N-14): 10.5 nM; `Cc1cccc(C[C@@H]2NC(=O)[C@H](CC(=O)O)NC(=O)[C@H](Cc3ccc(OCC(=O)O)cc3)NC(=O)[C@H](CN)NC(=O)CSC[C@@H](C(=O)N[C@@H](CC(=O)O)C(=O)NCCOCCOCC(=O)NCCCCCCCCCCC(=O)O)NC(=O)[C@@H](CO)NC(=O)[C@H](C(C)C)NC(=O)[C@H](CC3CCCCC3)NC(=O)[C@H](CCN)NC(=O)[C@@H](CC(C)C)NC(=O)[C@H](CCCN)NC(=O)[C@H](CCCNC(N)=O)NC(=O)[C@H](Cc3ccc(-c4ccccc4)cc3)NC(=O)[C@H](C(C)C)NC2=O)c1` [Compound 2021] ({CH2CO}-[Dap]Y(Carboxymethyl)D[Phe(3-Me)]V[Bip][Cit][Orn][dL][Dab][Cha]V[dS]CD[AEEA][Aun]-OH; thioether N-14): 30.8 nM.

Turning to `Cc1cccc(C[C@@H]2NC(=O)[C@H](CC(=O)O)NC(=O)[C@H](Cc3ccc(OCC(=O)O)cc3)NC(=O)[C@H](Cc3ccncc3)NC(=O)CSC[C@@H](C(=O)N[C@@H](CCN)C(=O)NCCOCCOCC(=O)NCCCCCCCCCCC(=O)O)NC(=O)[C@H](CN)NC(=O)[C@H](C(C)(C)O)NC(=O)[C@H](CC3CCCCC3)NC(=O)[C@H](CCN)NC(=O)[C@@H](CC(C)C)NC(=O)[C@H](CCCN)NC(=O)[C@H](Cc3ccc(OCC(=O)O)cc3)NC(=O)[C@H](Cc3ccc(-c4ccccc4)cc3)NC(=O)[C@H](Cc3ccc(OCC(=O)O)cc3)NC2=O)c1` [Compound 2022] ({CH2CO}-[4Pal]Y(Carboxymethyl)D[Phe(3-Me)]Y(Carboxymethyl)[Bip]Y(Carboxymethyl)[Orn][dL][Dab][Cha][Val(3-OH)][Dap]C[Dab][AEEA][Aun]-OH; thioether N-14), the IC50 turned out to be 59.5 nM. On to `Cc1cccc(C[C@@H]2NC(=O)[C@H](CC(=O)O)NC(=O)[C@H](Cc3ccc(OCC(=O)O)cc3)NC(=O)[C@H](CN)NC(=O)CSC[C@@H](C(=O)N[C@@H](CCN)C(=O)NCCOCCOCC(=O)NCCCCCCCCCCC(=O)O)NC(=O)[C@H](CO)NC(=O)[C@H](C(C)(C)O)NC(=O)[C@H](CC3CCCCC3)NC(=O)[C@H](CCN)NC(=O)[C@@H](CC(C)C)NC(=O)[C@H](CCCN)NC(=O)[C@H](Cc3ccc(OCC(=O)O)cc3)NC(=O)[C@H](Cc3ccc(-c4ccccc4)cc3)NC(=O)[C@H](Cc3ccc(OCC(=O)O)cc3)NC2=O)c1` [Compound 2023] ({CH2CO}-[Dap]Y(Carboxymethyl)D[Phe(3-Me)]Y(Carboxymethyl)[Bip]Y(Carboxymethyl)[Orn][dL][Dab][Cha][Val(3-OH)]SC[Dab][AEEA][Aun]-OH; thioether N-14), for which the IC50 turned out to be 10.2 nM. The result for `Cc1cccc(C[C@@H]2NC(=O)[C@H](CC(=O)O)NC(=O)[C@H](Cc3ccc(OCC(=O)O)cc3)NC(=O)[C@H](CN)NC(=O)CSC[C@@H](C(=O)N[C@@H](CCN)C(=O)NCCCCCCCCCCC(N)=O)NC(=O)[C@H]([C@@H](C)O)NC(=O)[C@H](C(C)C)NC(=O)[C@H](CC3CCCCC3)NC(=O)[C@H](CCN)NC(=O)[C@@H](CC(C)C)NC(=O)[C@H](CCCN)NC(=O)[C@H](CCCNC(=N)N)NC(=O)[C@H](Cc3ccc(-c4ccccc4)cc3)NC(=O)[C@H](C(C)C)NC2=O)c1` [Compound 2025] ({CH2CO}-[Dap]Y(Carboxymethyl)D[Phe(3-Me)]V[Bip]R[Orn][dL][Dab][Cha]VTC[Dab][Aun]-NH2; thioether N-14) reads 20.5 nM; that for `Cc1cccc(C[C@@H]2NC(=O)[C@H](CC(=O)O)NC(=O)[C@H](Cc3ccc(OCC(=O)O)cc3)NC(=O)[C@H](CN)NC(=O)CSC[C@@H](C(=O)N[C@@H](CCN)C(=O)NCCCCCCCCCCC(=O)O)NC(=O)[C@H](CCCCN)NC(=O)[C@H](C(C)C)NC(=O)[C@H](CC3CCCCC3)NC(=O)[C@H](CCN)NC(=O)[C@@H](CC3CC3)NC(=O)[C@H](CCCN)NC(=O)[C@H](C(C)C)NC(=O)[C@H](Cc3ccc(-c4ccccc4)cc3)NC(=O)[C@H](C(C)C)NC2=O)c1` [Compound 2026] ({CH2CO}-[Dap]Y(Carboxymethyl)D[Phe(3-Me)]V[Bip]V[Orn][dAla(cPr)][Dab][Cha]VKC[Dab][Aun]-OH; thioether N-14), 10.2 nM. For the molecule `Cc1cccc(C[C@@H]2NC(=O)[C@H](CC(=O)O)NC(=O)[C@H](Cc3ccc(OCC(=O)O)cc3)NC(=O)[C@H](CN)NC(=O)CSC[C@@H](C(=O)N[C@@H](CCN)C(=O)NCCCCCCCCCCC(=O)O)NC(=O)[C@H](CCCCN)NC(=O)[C@H](C(C)C)NC(=O)[C@H](CC3CCCCC3)NC(=O)[C@H](CCN)NC(=O)[C@@H](CC3CCC3)NC(=O)[C@H](CCCN)NC(=O)[C@H](C(C)C)NC(=O)[C@H](Cc3ccc(-c4ccccc4)cc3)NC(=O)[C@H](C(C)C)NC2=O)c1` [Compound 2027] ({CH2CO}-[Dap]Y(Carboxymethyl)D[Phe(3-Me)]V[Bip]V[Orn][dCba][Dab][Cha]VKC[Dab][Aun]-OH; thioether N-14), the IC50 stood at 15 nM. The result for `CC(C)C[C@H]1NC(=O)[C@H](CCCN)NC(=O)[C@H](C(C)C)NC(=O)[C@H](Cc2ccc(-c3ccccc3)cc2)NC(=O)[C@H](C(C)C)NC(=O)[C@H](Cc2ccc(N)cc2)NC(=O)[C@H](CC(=O)O)NC(=O)[C@H](Cc2ccc(OCC(=O)O)cc2)NC(=O)[C@H](CN)NC(=O)CSC[C@@H](C(=O)N[C@@H](CCN)C(=O)NCCCCCCCCCCC(=O)O)NC(=O)[C@H](CCCCN)NC(=O)[C@H](C(C)C)NC(=O)[C@H](CC2CCCCC2)NC(=O)[C@H](CCN)NC1=O` [Compound 2028] ({CH2CO}-[Dap]Y(Carboxymethyl)D[Phe(4-NH2)]V[Bip]V[Orn][dL][Dab][Cha]VKC[Dab][Aun]-OH; thioether N-14) reads 13.7 nM; that for `CC(C)C[C@H]1NC(=O)[C@H](CCCN)NC(=O)[C@H](C(C)C)NC(=O)[C@H](Cc2ccc(-c3ccccc3)cc2)NC(=O)[C@H](C(C)C)NC(=O)[C@H](Cc2cccc(O)c2)NC(=O)[C@H](CC(=O)O)NC(=O)[C@H](Cc2ccc(OCC(=O)O)cc2)NC(=O)[C@H](CN)NC(=O)CSC[C@@H](C(=O)N[C@@H](CCN)C(=O)NCCCCCCCCCCC(=O)O)NC(=O)[C@H](CCCCN)NC(=O)[C@H](C(C)C)NC(=O)[C@H](CC2CCCCC2)NC(=O)[C@H](CCN)NC1=O` [Compound 2029] ({CH2CO}-[Dap]Y(Carboxymethyl)D[mTyr]V[Bip]V[Orn][dL][Dab][Cha]VKC[Dab][Aun]-OH; thioether N-14), 8 nM. The result for `CC(C)C[C@H]1NC(=O)[C@H](CCCN)NC(=O)[C@H](C(C)C)NC(=O)[C@H](Cc2ccc(-c3ccccc3)cc2)NC(=O)[C@H](C(C)C)NC(=O)[C@H](Cc2ccc(O)c(F)c2)NC(=O)[C@H](CC(=O)O)NC(=O)[C@H](Cc2ccc(OCC(=O)O)cc2)NC(=O)[C@H](CN)NC(=O)CSC[C@@H](C(=O)N[C@@H](CCN)C(=O)NCCCCCCCCCCC(=O)O)NC(=O)[C@H](CCCCN)NC(=O)[C@H](C(C)C)NC(=O)[C@H](CC2CCCCC2)NC(=O)[C@H](CCN)NC1=O` [Compound 2030] ({CH2CO}-[Dap]Y(Carboxymethyl)D[Tyr(3-F)]V[Bip]V[Orn][dL][Dab][Cha]VKC[Dab][Aun]-OH; thioether N-14) reads 7.2 nM.

By IC50 is commonly meant the point on the concentration scale where inhibition reaches its midpoint.

These data come from patent publication US20260022142A1, “MACROCYCLIC IMMUNOMODULATORS” (Bristol-Myers Squibb Company, priority 2022, published 2026).
